Source: the NIST ThermoML archive (doi:10.1016/j.jct.2004.01.006)
Numbers after ± are expanded uncertainties.

Tests used:
[1] = Crystal; Adiabatic calorimetry
[2] = Molar enthalpy of transition or fusion; settings: Crystal; Adiabatic calorimetry

O=Cc1ccc(Cl)cc1Cl [2,4-dichlorobenzaldehyde]
Triple point temperature [1]: 347.24 ± 0.27 K
Molar enthalpy of transition or fusion [2]: 4.892 ± 0.0167 kcal/mol
